Results: US20100119483A1, “PEPTIDE VIRAL ENTRY INHIBITORS” (Schering Corporation, priority 2004, published 2010)

Key:
HCV pseudoparticles = experiment: HCV pseudoparticle (HCVpp) entry assay in Huh7 hepatoma cells, luciferase readout; format: cell-based, hepatitis C virus; conditions: peptide library screen, first screened at 100 ug/ml; cell entry inhibition vs uninhibited control
In short: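 Huh7 cells were pre-treated with peptide for 1 h at 37 °C before exposure to HCV E1/E2-pseudotyped HIV luciferase particles made in 293T cells, followed by 72 h culture and luciferase readout. Peptides were tested at 10 points, 3-fold, from 100 ug/ml; particles lacking envelope served as non-specific entry control.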

[1] = system: amphotropic murine leukemia virus; experiment: AMLV pseudotyped virus entry counter-screen, same infection protocol; format: cell-based; conditions: peptide library screen; cell entry inhibition vs uninhibited control
Description: Infection of hepatoma cell lines with HCV pseudotype particles and screen for inhibitory peptides. The hepatoma cells, Huh7, was seeded at 8000 cells in 90 ul medium in 96-well plate. In the case of the inhibitor screen, the inhibitor was incubated with cells for one hour at 37° C. and then 50 ul viral supernatant was added to the cells 24 hours after seeding. The viral stock was pre-tittered and diluted to yield approximately 10,000 to 20,000 RLU. The cells were incubated at 37° C. with 5% CO2 for additional 72 hours and were harvested for luciferase assay. Peptide stocks were prepared in 100% DMSO at 10 mg/ml and were first screened at 100 ug/ml and then a dose responsive curve was generated with 10 points 3-fold titration starting from 100 ug/ml.
The specificity of the peptides were counter-screened with AMLV and HIV pseudotyped viruses using the same infection protocol.

| Substance | HCVpp % inh (HCV pseudoparticles) [%] | AMLVpp % inh [1] [%] |
| --- | --- | --- |
| E-A-T-Y-T-K-C-G-S-G-P-W-L-T-P-R (EATYTKCGSGPWLTPR; HCV peptide) [SEQ ID NO: 60] | 13 | 17 |
| D-M-V-A-G-A-H-W-G-V-L-A-G-L-A-Y [SEQ ID NO: 25] | 27 | 14 |
| N-T-L-G-I-T-S-L-F-S-P-G-S-S-Q-K [SEQ ID NO: 32] | 11 | 2 |
| S-T-T-E-W-Q-V-L-P-C-S-F-T-T-L-P [SEQ ID NO: 71] | 44 | 18 |
| L-I-H-L-H-Q-N-V-V-D-V-Q-Y-L-Y-G [SEQ ID NO: 74] | 22 | 5 |
| V-D-L-L-V-G-A-A-A-L-C-S-A-M-Y-V [SEQ ID NO: 13] | 39 | −13 |
| W-G-V-L-A-G-L-A-Y-Y-S-M-V-G-N-W [SEQ ID NO: 26] | 50 | 27 |
| P-Y-R-L-W-H-Y-P-C-T-V-N-F-T-I-F (PYRLWHYPCTVNFTIF; HCV peptide) [SEQ ID NO: 63] | 44 | 3 |
| P-C-T-V-N-F-T-I-F-K-V-R-M-Y-V-G (PCTVNFTIFKVRMYVG; HCV peptide) [SEQ ID NO: 64] | −2 | −30 |
| I-M-H-T-P-G-C-V-P-C-V-R-E-N-N-S [SEQ ID NO: 7] | 3 | −4 |
| A-Q-V-C-G-P-V-Y-C-F-T-P-S-P-V-V [SEQ ID NO: 47] | 40 | −8 |
| E-Y-V-L-L-L-F-L-L-L-A-D-A-R-V-C [SEQ ID NO: 78] | 38 | 34 |
| L-P-C-S-F-T-T-L-P-A-L-S-T-G-L-I (LPCSFTTLPALSTGLI; HCV peptide) [SEQ ID NO: 72] | −2 | 20 |
| W-F-G-C-T-W-M-N-S-T-G-F-T-K-T-C (WFGCTWMNSTGFTKTC; HCV peptide) [SEQ ID NO: 54] | 39 | −15 |
| P-R-C-L-V-H-Y-P-Y-R-L-W-H-Y-P-C (PRCLVHYPYRLWHYPC; HCV peptide) [SEQ ID NO: 62] | 10 | −42 |
| E-L-S-P-L-L-L-S-T-T-E-W-Q-V-L-P [SEQ ID NO: 70] | 10 | 44 |
| T-T-T-I-R-R-H-V-D-L-L-V-G-A-A-A [SEQ ID NO: 12] | 31 | −5 |
| S-C-S-P-I-D-A-F-A-Q-G-W-G-P-I-T [SEQ ID NO: 41] | −11 | 25 |
